Test results as given in PubChem BioAssay (NCI).
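Grown in 96-well plates, cells were treated for 48 hours with each compound at five concentrations. Insufficient inhibition: endpoint recorded as highest concentration tested. Abbreviation: GI50, concentration required for 50% inhibition of growth. TGI: concentration producing complete growth inhibition.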

Assays:
Experiment in all cases: NCI anticancer screen, dose series, 48 h
[1] = system: HCT-116 colon
[2] = system: OVCAR-5 ovarian
[3] = system: MDA-MB-231 breast
[4] = system: SK-MEL-2 melanoma
[5] = system: HL-60(TB) leukemia
[6] = system: OVCAR-4 ovarian
[7] = system: CAKI-1 renal
[8] = system: CCRF-CEM leukemia
[9] = system: EKVX NSCLC
[10] = system: SF-539 CNS
[11] = system: SR leukemia
[12] = system: ACHN renal
[13] = system: IGROV1 ovarian
[14] = system: NCI-H522 lung
[15] = system: COLO 205 colon
[16] = system: MDA-MB-435
[17] = system: UACC-62 melanoma
[18] = system: HOP-92 NSCLC
[19] = system: MALME-3M melanoma
[20] = system: NCI/ADR-RES ovarian
[21] = system: MCF7 breast
[22] = system: U251 CNS
[23] = system: A498 renal
[24] = system: SNB-75 CNS
[25] = system: OVCAR-3 ovarian
[26] = system: NCI-H460 lung
[27] = system: TK-10 renal
[28] = system: SNB-19 CNS
[29] = system: DU-145 prostate
[30] = system: NCI-H226 lung
[31] = system: RXF 393 renal
[32] = system: RPMI-8226 leukemia
[33] = system: MOLT-4 leukemia
[34] = system: K-562 leukemia
[35] = system: SN12C renal
[36] = system: NCI-H23 lung
[37] = system: KM12 colon
[38] = system: T-47D breast
[39] = system: UACC-257 melanoma
[40] = system: OVCAR-8 ovarian
[41] = system: HT29 colon
[42] = system: HS 578T breast
[43] = system: HCC-2998 colon
[44] = system: M14 melanoma
[45] = system: 786-0 renal
[46] = system: PC-3 prostate
[47] = system: A549 NSCLC
[48] = system: SK-OV-3 ovarian
[49] = system: BT-549 breast
[50] = system: HOP-62 NSCLC
[51] = system: SF-268 CNS
[52] = system: LOX IMVI melanoma
[53] = system: UO-31 renal
[54] = system: SF-295 CNS
[55] = system: SW-620 colon
[56] = system: SK-MEL-28 melanoma
[57] = system: HCT-15 colon
[58] = system: SK-MEL-5 melanoma
[59] = system: MDA-N

CN1CCN(Cc2ccc(-c3cc4ncnc(Nc5ccc(OCc6cccc(F)c6)c(Cl)c5)c4s3)o2)CC1
GI50 [1]: 3.62 µM
TGI [1]: 7.42 µM
GI50 [2]: 3.91 µM
TGI [2]: 7.8 µM
GI50 [3]: 4.56 µM
TGI [3]: 9.01 µM
GI50 [4]: 5.33 µM
TGI [4]: 10.2 µM
GI50 [5]: 4.62 µM
TGI [5]: 9.34 µM
GI50 [6]: 3.69 µM
TGI [6]: 7.5 µM
GI50 [7]: 3.33 µM
TGI [7]: 7.98 µM
GI50 [8]: 3.81 µM
TGI [8]: 9.18 µM
GI50 [9]: 2.95 µM
TGI [9]: 8.78 µM
GI50 [10]: 4.17 µM
TGI [10]: 8.55 µM
GI50 [11]: 4.43 µM
TGI [11]: 10 µM
GI50 [12]: 3.26 µM
TGI [12]: 6.95 µM
GI50 [13]: 3.51 µM
TGI [13]: 8.34 µM
GI50 [14]: 4.75 µM
TGI [14]: 9.46 µM
GI50 [15]: 4.8 µM
TGI [15]: 8.66 µM
GI50 [16]: 4.68 µM
TGI [16]: 10.4 µM
GI50 [17]: 4.97 µM
TGI [17]: 9.58 µM
GI50 [18]: 2.76 µM
TGI [18]: 6.51 µM
GI50 [19]: 4.56 µM
TGI [19]: 9.69 µM
GI50 [20]: 4.32 µM
TGI [20]: 9.32 µM
GI50 [21]: 3.86 µM
TGI [21]: 7.81 µM
GI50 [22]: 3.34 µM
TGI [22]: 7.12 µM
GI50 [23]: 3.5 µM
TGI [23]: 7.57 µM
GI50 [24]: 4.29 µM
TGI [24]: 9.11 µM
GI50 [25]: 4.23 µM
TGI [25]: 8.01 µM
GI50 [26]: 4.56 µM
TGI [26]: 8.85 µM
GI50 [27]: 3.02 µM
TGI [27]: 6.64 µM
GI50 [28]: 4.8 µM
TGI [28]: 9.86 µM
GI50 [29]: 4.03 µM
TGI [29]: 7.47 µM
GI50 [30]: 4.39 µM
TGI [30]: 10.4 µM
GI50 [31]: 3.33 µM
TGI [31]: 7.52 µM
GI50 [32]: 3.91 µM
TGI [32]: 9.52 µM
GI50 [33]: 4.47 µM
TGI [33]: 9.39 µM
GI50 [34]: 2.08 µM
TGI [34]: 6.85 µM
GI50 [35]: 3.79 µM
TGI [35]: 7.85 µM
GI50 [36]: 4.29 µM
TGI [36]: 8.44 µM
GI50 [37]: 4.44 µM
TGI [37]: 8.19 µM
GI50 [38]: 4.12 µM
TGI [38]: 9.06 µM
GI50 [39]: 4.26 µM
TGI [39]: 8.37 µM
GI50 [40]: 4.53 µM
TGI [40]: 9.62 µM
GI50 [41]: 1.38 µM
TGI [41]: 4.3 µM
GI50 [42]: 5.57 µM
TGI [42]: 12.7 µM
GI50 [43]: 4.24 µM
TGI [43]: 7.99 µM
GI50 [44]: 4.63 µM
TGI [44]: 8.81 µM
GI50 [45]: 4.47 µM
TGI [45]: 8.95 µM
GI50 [46]: 4.13 µM
TGI [46]: 8.17 µM
GI50 [47]: 3.2 µM
TGI [47]: 6.92 µM
GI50 [48]: 4.67 µM
TGI [48]: 9.97 µM
GI50 [49]: 4.41 µM
TGI [49]: 8.91 µM
GI50 [50]: 4.64 µM
TGI [50]: 9.12 µM
GI50 [51]: 4.07 µM
TGI [51]: 8.7 µM
GI50 [52]: 3.66 µM
TGI [52]: 8.07 µM
GI50 [53]: 3.3 µM
TGI [53]: 7.37 µM
GI50 [54]: 5.06 µM
TGI [54]: 10.4 µM
GI50 [55]: 4.66 µM
TGI [55]: 8.64 µM
GI50 [56]: 4.08 µM
TGI [56]: 7.61 µM
GI50 [57]: 2.92 µM
TGI [57]: 6.39 µM
GI50 [58]: 3.77 µM
TGI [58]: 7.54 µM

CC(=O)ON(OC(C)=O)c1ccc(C)cc1
TGI [1]: > 100 µM
TGI [2]: > 100 µM
TGI [3]: > 100 µM
TGI [4]: > 100 µM
TGI [59]: > 100 µM
TGI [6]: > 100 µM
TGI [7]: > 100 µM
TGI [9]: > 100 µM
TGI [12]: > 100 µM
TGI [13]: > 100 µM
TGI [14]: > 100 µM
TGI [15]: > 100 µM
TGI [16]: > 100 µM
TGI [17]: > 100 µM
TGI [18]: > 100 µM
TGI [19]: > 100 µM
TGI [20]: > 100 µM
TGI [21]: > 100 µM
TGI [22]: > 100 µM
TGI [23]: > 100 µM
TGI [24]: > 100 µM
TGI [25]: > 100 µM
TGI [26]: > 100 µM
TGI [27]: > 100 µM
TGI [28]: > 100 µM
TGI [29]: > 100 µM
TGI [31]: > 100 µM
TGI [32]: > 100 µM
TGI [33]: > 100 µM
TGI [34]: > 100 µM
TGI [36]: > 100 µM
TGI [37]: > 100 µM
TGI [39]: > 100 µM
TGI [40]: > 100 µM
TGI [41]: > 100 µM
TGI [42]: > 100 µM
TGI [43]: > 100 µM
TGI [44]: > 100 µM
TGI [45]: > 100 µM
TGI [46]: > 100 µM
TGI [47]: > 100 µM
TGI [48]: > 100 µM
TGI [49]: > 100 µM
TGI [50]: > 100 µM
TGI [51]: > 100 µM
TGI [53]: > 100 µM
TGI [54]: > 100 µM
TGI [55]: > 100 µM
TGI [56]: > 100 µM
TGI [57]: > 100 µM
TGI [58]: > 100 µM
